pEC50: −log10 of the molar value. Entries after “also recorded” stand apart in the source; their conditions may differ. Values belong to the compound of their own block, whether it stands above or below them.
How the values were obtained:
[1] = tested on: IRE RNA / RNA binding protein (K562 protein extract); test: Filter binding assay, IRE RNA with K562 protein extract; settings: hemin 1 to 100 μM; FeCl3 1 μM to 1 mM; desferroxiamine 1 μM to 1 mM
Description: FIG. 6 is a graph of the amount of radioactively labeled RNA retained on a filter (expressed in percent of the amount of RNA retained on a filter in a reference binding solution) following loading of various binding solutions. All of the binding solutions contained radioactively labeled IRE RNA either alone or including various other components. The first column represents a binding solution without RNA binding protein. The remaining columns represent binding solutions containing RNA binding protein (K562 extract). […] Desferal and des indicate that the binding solutions included the indicated amount of desferroxiamine as a test compound.
FIG. 8 is a graph of the amount of radioactively labeled RNA retained on a filter (expressed in percent of the amount of RNA retained on a filter in a reference binding solution) following loading of various binding solutions. Alternate columns correspond to binding solutions containing radioactively labeled AUUUA RNA or IRE RNA, either alone or including various other components. The first two column represents binding solutions without RNA binding protein. The remaining columns represent binding solution containing RNA binding protein (K562 extract). Columns 5 through 40 correspond to binding solutions including the indicated amount of the indicated test compound.
All binding reactions are performed in 96-well polystyrene plates in a final volume of 10 or 100 μl. The assays were constituted and performed as described below. […]
Binding assays were performed with wild-type IRE RNA and K562 protein extract in the presence of sources of iron or iron chelators to determine the ability of the filter assay to detect the modulation of binding interactions by small molecules. […] The reactions were analyzed by gel shifts to visualize the results of the filter assay.

[2] = tested on: AUUUA RNA / RNA binding protein (K562 extract); test: High throughput filter binding assay, 32P-labeled AUUUA RNA with K562 protein extract
Description: FIG. 7 is a graph of the amount of radioactively labeled RNA retained on a filter (expressed in percent of the amount of RNA retained on a filter in a reference binding solution) following loading of various binding solutions. All of the binding solutions contained radioactively labeled AUUUA RNA either alone or including various other components. The first column represents a binding solution without RNA binding protein. The remaining columns represent binding solution containing RNA binding protein (K562 extract). Columns 3 through 8 correspond to binding solutions including the indicated test compound.
(§1) All binding reactions are performed in 96-well polystyrene plates in a final volume of 10 or 100 μl. The assays were constituted and performed as described below. Specifically, assays were performed by (1) forming a binding solution including RNA molecules, 7.5 mM BTP at pH 8.5, 10 mM KCl, 5 mM MgCl2, 0.2 mM DTT, and 10% glycerol, (2) heating the binding solution to denature the RNA molecules, (3) cooling the binding solution, (4) adding RNA binding proteins to the binding solution, (5) loading the binding solution onto a filter, and (6) detecting the amount RNA retained on the filter. It is preferred that the samples be loaded on to a filter of either pure nitrocellulose or a mixed cellulose ester (MCA). It is also preferred that the filters have a 0.2μ pore size, although filters with a 0.45μ pore size will also bind the RNA/RNA binding protein complex. It is preferred that, prior to loading the binding solution onto a filter, the volume is increased. For this purpose, it is preferred that the dilution solution has the same buffer components as the binding solution except lacking the density agent. For a 10 μl volume it is preferred that the final volume be about 100 μl by addition of 1× binding buffer. It is also preferred that the binding solution be loaded onto the filter under vacuum. It is also preferred that the filter is washed twice prior to detecting the amount of RNA retained on the filter. Preferably the wash solution had the same composition as the dilution solution. However, TE (pH 8.0), PBS, or TCA can also be used as wash solutions. In most of the assays described below, the RNA molecules were labeled with ^32 P.
The library was initially screened at 10 μM against ^32 P-labeled AUUUA RNA. Several methods of introducing the compounds into the binding reaction were tested. Initially the compounds were coincubated with the RNA and protein, producing modest results. Next, preincubation with either the protein extract or the RNA was tried with improved results.
Seventeen compounds were chosen for further analysis at 100 nM, 1 μM and 10 μM using both AUUUA and IRE RNAs based on the results from four screening efforts (Exps. 29-31, 33). Table 2 summarizes the results from these compounds at 10 μM. The results are also shown graphically in FIG. 7. […] Compounds D9 and H2, chosen as negative controls from the initial screening, continued to have no effect in the dose dependent screen (Exp. 33) and were identified as vehicle controls.

TNF-α production = settings: previously shown; cited from earlier work
[3] = tested on: TNF-α 3' untranslated region / human cell RBP's; test: High throughput screening assay, TNF-α 3' untranslated region with total protein extract; format: binding; settings: TNF-α 3' UTR; for effect on TNF-α RNA/RBP interaction, in words: total protein extract; for pEC50: read-out: EC50 on in vitro binding
Protocol: FIG. 9A is a graph of the level of RNA/RBP interactions (between the TNF-α 3' untranslated region and human cell RBP's) in the presence or absence of test compounds. […] The remaining columns include RNA plus extract in the presence of specific compounds.
as §1
This example describes identification of compounds which either increase or decrease the binding interaction between a site within an RNA molecule which interacts with an RBP. This example makes use of a total protein extract which allows identification of compounds that modulate interactions without the need for identification of the specific RBP(s) involved.

[4] = tested on: iron response element RNA/RBP interaction; test: Control assay using the iron response element (Example 4); format: binding; settings: increasing concentrations; unrelated RNA specificity control
[5] = compound 10 μM, RNA & K562 = 100.00

Compound: [Cl][Fe]([Cl])[Cl] [FeCl3]
modulation of IRE/protein binding by iron sources or iron chelator, in words [1]: concentration-dependent inhibition of binding

Avg. % (labeled AUUUA RNA retained on filter, average of Experiments #33, #31, #30, #29) [2, 5]: 111.00%
Labeled AUUUA RNA retained on filter, percent of RNA & K562 control, Experiment #29 [2, 5]: 114.53%
Labeled AUUUA RNA retained on filter, percent of RNA & K562 control, Experiment #30 [2, 5]: 66.94%
Labeled AUUUA RNA retained on filter, percent of RNA & K562 control, Experiment #31 [2, 5]: 127.28%
Labeled AUUUA RNA retained on filter, percent of RNA & K562 control, Experiment #33 [2, 5]: 135.24%
Compound: CC(=NNC(=N)N)c1cc(NC(=O)CCCCCCCCC(=O)Nc2cc(C(C)=NNC(=N)N)cc(C(C)=NNC(=N)N)c2)cc(C(C)=NNC(=N)N)c1 [Compound G10, CNI-1493]
effect on counts (AUUUA RNA binding), in words ([2]; 10 μM, AUUUA RNA): substantial increase in counts in 3 of the 4 experiments
effect on TNF-α production, in words (TNF-α production): post-transcriptionally inhibit TNF-α production

Compound: Cc1c(CCN)c2c3n1CCCC3CCC2 (centres unmarked) [SYM 1405]
inhibition of binding [3]: about 40%
effect on TNF-α RNA/RBP interaction, in words [3]: inhibited binding of TNF-α in a concentration-dependent manner; also recorded: concentration-dependent inhibition
pEC50 [3]: ~5.70
effect on iron response element binding, in words [4]: little effect on the iron response element

potentiation of binding [3]: approximately 3 fold
pEC50 [3]: 4.64
Compound: CC(=NNC(=N)N)c1cc(NC(=O)CCCCCCC(=O)Nc2cc(C(C)=NNC(=N)N)cc(C(C)=NNC(=N)N)c2)cc(C(C)=NNC(=N)N)c1 [SYM 1710]

Compound: CC(=O)N(O)CCCCCNC(=O)CCC(=O)N(O)CCCCCNC(=O)CCC(=O)N(O)CCCCCN [Desferroxiamine, desferroxiamine]
modulation of IRE/protein binding by iron sources or iron chelator, in words [1]: did not change the amount IRE/protein complex formed

Compound: hemin
modulation of IRE/protein binding by iron sources or iron chelator, in words [1]: concentration-dependent inhibition of binding

Compound: O=[N+]([O-])c1ccc(C(Cl)=NCCCN=Cc2ccc3c(c2)OCO3)cc1 [SYM 1301]
effect on TNF-α RNA/RBP interaction, in words [3]: no effect

Source: US6004749A, “Method for identifying compounds affecting RNA/RNA binding protein interactions” (Message Pharmaceuticals, priority 1997, dated 1999)
